Measured values taken from patent US20050176655A1, “Novel macrolide derivatives havaing effect of potentiating antifungal activity” (priority 2002, published 2005).

Columns and labels:
[1] = system: Aspergillus niger ATCC 6275; test: Paper disk method, enhancing action for activities of azole antifungal agents; format: cell-based; details: 48 hours; for Inhibition activity (inhibition ring mm) A. niger ATCC 6275 GYF / Transparency of the inhibition ring A. niger ATCC 6275 GYF: fluconazole 10 μg/ml
Procedure: (§1) Test organisms used were Candida albicans ATCC 64548, fluconazole resistant Candida albicans ATCC 64550 and Aspergillus niger ATCC 6275. Candida spp. were cultured in Waksman broth (glucose 2.0%, peptone 0.5%, dry yeast 0.3%, meat extract 0.5%, NaCl 0.5% and CaCO3 0.3%, pH 7.0) at 27° C. for 40 hours, then 0.1% thereof was inoculated on GY agar medium (glucose 1.0%, yeast extract 0.5% and agar 0.8%, pH 6.0). Spore suspension 0.2% of Aspergillus niger ATCC 6275 was inoculated on GY agar medium.
(§2) Azole antifungal agents used were miconazole (Sigma Inc., the U.S.) and fluconazole (ICN Pharmaceuticals, Inc., the U.S.), and were added at concentrations without affecting growth on each test organisms follows.
Aspergillus niger ATCC 6275: miconazole 0.1 μg/ml or fluconazole 10 μg/ml.
(§3) In the above medium, a medium added with miconazole to GY medium (control) is designated as GYM, and a medium added with fluconazole is designated as GYF. Activities were assessed by means of paper disk method (thickness: 8 mm, ADVANTEC MFS INC., Japan). Diameter of inhibition ring is expressed with mm unit after culturing Candida spp. for 24 hours and Aspergillus niger ATCC 6275 for 48 hours. Transparency of the inhibition ring is assessed with 5 degrees of A, B, C, D and E (transparence<A<B<C<D<E<opaque).

[2] = system: Candida albicans ATCC 64548; test: as above; format: cell-based; details: GYM, miconazole 0.03 μg/ml, 24 hours
Procedure: as §1, §2
Candida albicans ATCC 64548: miconazole 0.03 μg/ml or fluconazole 0.5 μg/ml.
as §3

[3] = 50 μg/8 mm disk, GY medium (control, no azole)
[4] = 50 μg/8 mm disk, GYM, miconazole 0.1 μg/ml

Row | SMILES | Inhibition activity (inhibition ring mm) A. niger ATCC 6275 GYF ([1]; 10 μg/8 mm disk) [mm] | Transparency of the inhibition ring A. niger ATCC 6275 GYF ([1]; 10 μg/8 mm disk) | Inhibition activity (inhibition ring mm) A. niger ATCC 6275 GY [1, 3] [mm] | Transparency of the inhibition ring A. niger ATCC 6275 GY [1, 3] | Inhibition activity (inhibition ring mm) A. niger ATCC 6275 GYF ([1]; 50 μg/8 mm disk) [mm] | Transparency of the inhibition ring A. niger ATCC 6275 GYF ([1]; 50 μg/8 mm disk) | Inhibition activity (inhibition ring mm) C. albicans ATCC 64548 GYM ([2]; 100 μg/8 mm disk) [mm] | Transparency of the inhibition ring C. albicans ATCC 64548 GYM ([2]; 100 μg/8 mm disk) | Inhibition activity (inhibition ring mm) A. niger ATCC 6275 GYM [1, 4] [mm] | Transparency of the inhibition ring A. niger ATCC 6275 GYM [1, 4] | Inhibition activity (inhibition ring mm) C. albicans ATCC 64548 GYM ([2]; 50 μg/8 mm disk) [mm] | Transparency of the inhibition ring C. albicans ATCC 64548 GYM ([2]; 50 μg/8 mm disk)
1 | C=CCCON=C1C(C)CC(C)(O)C(OC2OC(C)CC(N(C)C)C2O)C(C)C(OC2CC(C)(OC)C(O)C(C)O2)C(C)C(=O)OC(CC)C(C)(O)C(O)C1C (centres unmarked) [Compound 769, 9(E)-3-butenyloxime-erythromycin A] | 11 | E (Growth of test organism was inhibited 35% or less.) | 10 | E (Growth of test organism was inhibited 35% or less.) | 16 | E (Growth of test organism was inhibited 35% or less.) | 14 | E (Growth of test organism was inhibited 35% or less.) | – | – | – | –
2 | CCC1OC1(C)C1OC(=O)C(C)C(OC2CC(C)(OC)C(OS(=O)(=O)Cc3ccccc3)C(C)O2)C(C)C(OC2OC(C)CC(N(C)C)C2OC(C)=O)C2(C)CC(C)=C(O2)C1C (centres unmarked) [Compound 775, 2′-O-acetyl-4″-O-benzylsulfonyl-12,13-epoxide-8,9-anhydro-pseudoerythromycin A. 6,9-hemiketal] | 16 | E (Growth of test organism was inhibited 35% or less.) | – | – | 16 | E (Growth of test organism was inhibited 35% or less.) | – | – | 16 | D (Growth of test organism was inhibited 35% or more and 55% or less.) | 10 | E (Growth of test organism was inhibited 35% or less.)
3 | CCC1OC(=O)C(C)C(OC2CC(C)(OC)C(O)C(C)O2)C(C)C(OC2OC(C)CC(N(C)CCN(C)C3CC(C)OC(OC4C(C)C(OC5CC(C)(OC)C(O)C(C)O5)C(C)C(=O)OC(CC)C(C)(O)C(O)C(C)C(=O)C(C)CC4(C)O)C3O)C2O)C(C)(O)CC(C)C(=O)C(C)C(O)C1(C)O (centres unmarked) [Compound 752, 3′-de-N-methyl-3′-N-{2-amino-(3′-de-N-methyl-erythromycin A)}ethyl-erythromycin A] | – | – | – | – | 17 | E (Growth of test organism was inhibited 35% or less.) | 12 | E (Growth of test organism was inhibited 35% or less.) | – | – | – | –
